This note sets out measurements from patent US20240148821A1, “PHARMACEUTICAL USE OF CYCLIC PEPTIDE COMPOUND” (CHUGAI SEIYAKU KABUSHIKI KAISHA, priority 2021, published 2024).

Numbered stars: 1 amine (or outer) side, 2 acyl side, 3 side chain; on linkers, the order of the positions; unused ones are H or OH. Bridge positions count the residues as written; N and C are the ends. Square brackets hold non-standard residues; d marks the D form. Peptide text beside a SMILES is read from it. * marks the point of attachment. hPhe(3,5-F2-4-CF3) = N[C@@H](CCc1cc(F)c(C(F)(F)F)c(F)c1)C(=O)O; hPhe(3-Cl-4-CF3) = N[C@@H](CCc1ccc(C(F)(F)F)c(Cl)c1)C(=O)O; NMePhe(4-CF3) = CN[C@@H](Cc1ccc(C(F)(F)F)cc1)C(=O)O; hPhe(4-CF3) = N[C@@H](CCc1ccc(C(F)(F)F)cc1)C(=O)O; NMePhe(4-Cl) = CN[C@@H](Cc1ccc(Cl)cc1)C(=O)O; NMePhe(4-Me) = CN[C@@H](Cc1ccc(C)cc1)C(=O)O; NMeMet(O2) = CN[C@@H](CCS(C)(=O)=O)C(=O)O; NMeGly(cPent) = CN[C@H](C(=O)O)C1CCCC1; Phe(3-I) = N[C@@H](Cc1cccc(I)c1)C(=O)O; X26 = CC(C)=CC[C@H](N[*:1])C(=O)[*:2]; NMeAla(cPr) = CN[C@@H](CC1CC1)C(=O)O; NMeY = CN[C@@H](Cc1ccc(O)cc1)C(=O)O; NMeCha = CN[C@@H](CC1CCCCC1)C(=O)O; NMeF = CN[C@@H](Cc1ccccc1)C(=O)O; NMeI = CC[C@H](C)[C@H](NC)C(=O)O; NMeD = CN[C@@H](CC(=O)O)C(=O)O; NMeL = CN[C@@H](CC(C)C)C(=O)O; NMeV = CN[C@H](C(=O)O)C(C)C; d(β3hA) = C[C@@H](N)CC(=O)O; Pip = O=C(O)[C@@H]1CCCCN1; NMeA = CN[C@@H](C)C(=O)O; NMeAib = CNC(C)(C)C(=O)O; Nle = CCCC[C@H](N)C(=O)O; Piperidide = C1CCN(*)CC1; Pra = C#CC[C@H](N)C(=O)O; Pyrrolidide = C1CCN(*)C1; dNMeA = CN[C@H](C)C(=O)O; Ac5c = NC1(C(=O)O)CCCC1; Aze = O=C(O)[C@@H]1CCN1; Sar = CNCC(=O)O A value given as a limit tells only on which side of the number the result lay.

This assay relates to Human pancreatic cancer cell line AsPC-1 (G12D mutation Kras). Put plainly: AsPC-1 cell growth inhibition (AsPC-1 CGI). The following applies: read-out: AsPC-1 cell growth inhibition, 50% growth inhibitory concentration (IC50 value); 96 hours, CellTiter-Glo, values classified in ranges. Type of assay: cell-based. For orientation: ATP-based viability assays read luminescence as a measure of living cells.
Experimental: Test compounds were serially dilated with dimethyl sulfoxide, and 200 nL was then dispensed to a U-bottom 96-well plate using Labcyte Echo. […] The cell suspension was dispensed to a. plate containing a test compound at 100 μL per well and incubated at 37° C. in a 5% carbon dioxide gas incubator. 96 hours later, 80 μL of CellTiter-Glo (Promega) was added to each well and fluorescence was measured.
Turning to `CC[C@H](C)[C@@H]1NC(=O)[C@H](C)N(C)C(=O)C[C@@H](C)NC(=O)[C@H](C2CCCC2)N(C)C(=O)C2(CCCC2)NC(=O)[C@@H]2CCCN2C(=O)[C@H](CCc2ccc(C(F)(F)F)c(Cl)c2)NC(=O)[C@@H](C)N(C)C(=O)[C@H](Cc2ccc(C(F)(F)F)cc2)N(C)C(=O)[C@@H]2CCN2C(=O)CN(C)C1=O` [Compound 1507] (cyclo([Ac5c][NMeGly(cPent)][d(β3hA)][NMeA]I[Sar][Aze][NMePhe(4-CF3)][dNMeA][hPhe(3-Cl-4-CF3)]P)), the IC50 is > 500 nM.
In the case of `C#CC[C@@H]1NC(=O)[C@H](Cc2cccc(I)c2)NC(=O)CN(C)C(=O)[C@H](Cc2ccc(OC)cc2)N(C)C(=O)[C@@H]2CCN2C(=O)[C@H](C)N(C)C(=O)[C@H]([C@@H](C)CC)NC(=O)[C@H](CC(C)C)N(C)C(=O)C[C@@H](C(=O)N2CCCCC2)N(C)C(=O)[C@H](CC(C)C)NC(=O)C(C)(C)N(C)C1=O` [Compound 1350] ([NMeL]I[NMeA][Aze][NMeY](Me)[Sar][Phe(3-I)][Pra][NMeAib]L[NMeD]-Piperidide; lactam N-11), the IC50 was > 500 nM.
`CC[C@H](C)[C@@H]1NC(=O)[C@H](CC(C)C)N(C)C(=O)C[C@@H](C(=O)N2CCCCC2)N(C)C(=O)[C@H](CC(C)C)NC(=O)C(C)(C)N(C)C(=O)[C@H](CC=C(C)C)NC(=O)[C@H](Cc2cccc(I)c2)NC(=O)CN(C)C(=O)[C@H](Cc2ccc(Cl)cc2)N(C)C(=O)[C@@H]2CCN2C(=O)[C@H](C)N(C)C1=O` [Compound 1419] ([NMeL]I[NMeA][Aze][NMePhe(4-Cl)][Sar][Phe(3-I)][X26][NMeAib]L[NMeD]-Piperidide; lactam N-11): the IC50 is > 500 nM.
For `CC[C@H](C)[C@@H]1NC(=O)[C@@H]2CCCCN2C(=O)C[C@@H](C)NC(=O)[C@H](C(C)C)N(C)C(=O)[C@H](Cc2ccccc2)N(C)C(=O)[C@H](CC(C)C)N(C)C(=O)[C@H](CCc2ccc(C(F)(F)F)cc2)NC(=O)CN(C)C(=O)[C@H](Cc2ccc(Cl)cc2)N(C)C(=O)CN(C)C(=O)CN(C)C1=O` [Compound 1110] (cyclo(I[Sar][Sar][NMePhe(4-Cl)][Sar][hPhe(4-CF3)][NMeL][NMeF][NMeV][d(β3hA)][Pip])), the IC50 is > 500 nM.
On to `CCCC[C@@H]1NC(=O)[C@H](Cc2cccc(I)c2)NC(=O)CN(C)C(=O)[C@H](Cc2ccc(C)cc2)N(C)C(=O)CN(C)C(=O)CN(C)C(=O)[C@H]([C@@H](C)CC)NC(=O)[C@H](CC(C)C)N(C)C(=O)C[C@@H](C(=O)N2CCCCC2)N(C)C(=O)[C@H](CC(C)C)NC(=O)[C@H](C)N(C)C1=O` [Compound 232] ([NMeL]I[Sar][Sar][NMePhe(4-Me)][Sar][Phe(3-I)][Nle][NMeA]L[NMeD]-Piperidide; lactam N-11), for which the IC50 is > 500 nM.
As for `CC[C@H](C)[C@@H]1NC(=O)[C@H](CC(C)C)N(C)C(=O)C[C@@H](C(=O)N2CCCCC2)N(C)C(=O)[C@H](CCS(C)(=O)=O)N(C)C(=O)C2(CCCC2)NC(=O)[C@@H]2CCCN2C(=O)[C@H](CCc2ccc(C(F)(F)F)c(Cl)c2)NC(=O)CN(C)C(=O)[C@H](CC2CCCCC2)N(C)C(=O)CN(C)C(=O)CN(C)C1=O` [Compound 162] ([NMeL]I[Sar][Sar][NMeCha][Sar][hPhe(3-Cl-4-CF3)]P[Ac5c][NMeMet(O2)][NMeD]-Piperidide; lactam N-11), the IC50 was > 500 nM.
`CC[C@H](C)[C@@H]1NC(=O)[C@H](CC(C)C)N(C)C(=O)C[C@@H](C(=O)N2CCCC2)N(C)C(=O)[C@H]([C@@H](C)CC)N(C)C(=O)C2(CCCC2)NC(=O)[C@@H]2CCCN2C(=O)[C@H](CCc2cc(F)c(C(F)(F)F)c(F)c2)NC(=O)CN(C)C(=O)[C@H](Cc2ccc(C(F)(F)F)cc2)N(C)C(=O)[C@@H]2CCN2C(=O)[C@H](C)N(C)C1=O` [Compound 1343] ([NMeL]I[NMeA][Aze][NMePhe(4-CF3)][Sar][hPhe(3,5-F2-4-CF3)]P[Ac5c][NMeI][NMeD]-Pyrrolidide; lactam N-11): the IC50 was ≤ 20 nM.
Consider `CC[C@H](C)[C@@H]1NC(=O)[C@H](C)N(C)C(=O)C[C@@H](C(=O)N2CCCCC2)N(C)C(=O)[C@H](C(C)C)N(C)C(=O)C2(CCCC2)NC(=O)[C@@H]2CCCN2C(=O)[C@H](CCc2ccc(C(F)(F)F)c(Cl)c2)NC(=O)CN(C)C(=O)[C@H](CC2CCCCC2)N(C)C(=O)[C@@H]2CCCN2C(=O)CN(C)C1=O` [Compound 1121] ([NMeA]I[Sar]P[NMeCha][Sar][hPhe(3-Cl-4-CF3)]P[Ac5c][NMeV][NMeD]-Piperidide; lactam N-11), for which the IC50 was > 500 nM.
Take `CC[C@H](C)[C@@H]1NC(=O)[C@H](CC2CC2)N(C)C(=O)C[C@@H](C)NC(=O)[C@H](C(C)C)N(C)C(=O)C2(CCCC2)NC(=O)[C@@H]2CCCN2C(=O)[C@H](CCc2ccc(C(F)(F)F)c(Cl)c2)NC(=O)CN(C)C(=O)[C@H](CC2CCCCC2)N(C)C(=O)CN(C)C(=O)CN(C)C1=O` [Compound 248] (cyclo([Ac5c][NMeV][d(β3hA)][NMeAla(cPr)]I[Sar][Sar][NMeCha][Sar][hPhe(3-Cl-4-CF3)]P)): the IC50 was > 500 nM.
